In patent publication US20120196884A1, “UREA SUBSTITUTED SULPHONAMIDE DERIVATIVES” (BIOTIE THERAPIES CORPORATION, priority 2009, published 2012):
“Also recorded” adds a separate entry of the source.

Assays:
PC-3 cells = test: PC-3 cell invasion through Matrigel; assay type: cell-based; settings: Homo sapiens, 72 hours
Excerpt: The overexpression regulates cell adhesion and migration to and invasion through the extracellular matrix. By blocking the interaction between extracellular matrix components like collagen and α2β1 it is possible to block cancer cell migration and invasion in vitro. Prostate cancer cells (PC-3) expressing α2β1 endogenously were used to test the in vitro anticancer potential of the inhibitors of the present invention.
Invasion of PC-3 cells (CRL-1435, ATCC) through Matrigel was studied using BD Biocoat invasion inserts (BD Biosciences). Inserts were stored at −20° C. Before the experiments inserts were allowed to adjust to the room temperature. 500 μl of serum free media (Ham's F12K medium, 2 mM Lglutamine, 1.5 g/l sodium bicarbonate) was added into the inserts and allowed to rehydrate at 37° C. in cell incubator for two hours. The remaining media was aspirated. PC-3 cells were detached, pelleted and suspended into serum free media (50 000 cells/500 μL). 300 μL of cell suspension was added into the insert in the absence (control) or presence of the inhibitor according to the present invention. Inserts were placed on the 24-well plates; each well containing 700 μL of cell culture media with 3% of fetal bovine serum as chemoattractant. Cells were allowed to invade for 72 hours at 37° C. in cell incubator. Inserts were washed with 700 μL PBS, and fixed with 4% paraformaldehyde for 10 minutes. Paraformaldehyde was aspirated and cells were washed with 700 μL of PBS and inserts were stained by incubation with hematoxylin for 1 minute. The stain was removed by washing the inserts with 700 μL of PBS. Inserts were allowed to dry. Fixed invaded cells were calculated under the microscope. Invasion % was calculated as a comparison to the control.

[1] = test system: platelet adhesion to collagen; test: Cellix microfluidic system: platelet adhesion to collagen coated capillary under flow; assay type: cell-based, human; design: key to Inhibition of platelet adhesion to collagen: + indictes that the compound efficiently inhibited the platelet adhesion to collagen; settings: for Inhibition of platelet adhesion to collagen: whole blood, collagen coated capillary, shear 90 dynes/cm^2
Procedure: Cellix microfluidic platform models human blood vessels providing a dynamic set-up mimicking physiological conditions to test new therapeutic agents (Cellix Ltd). The platform was used to measure the platelet adhesion to collagen coated capillary under flow. An anti-coaculated whole blood sample was run through a collagen coated capillary under a constant shear and the size of thrombi on capillary wall was analyzed with analysis program (DucoCell, Cellix Ltd).
The capillary were coated with Horm collagen 20 μg/mL (Nycomed) and incubated for 24 h in +4° C. Background was blocked with 1% BSA (bovine serum albumin, Sigma) treatment for 30 min in room temperature. Blood was collected from a donor into blood collection tubes containing 40 μM PPACK (Dphenylalanyl-L-prolyl-L-arginine chloromethyl-ketone, Calbiochem) as anticoagulant. Blood was treated either with inhibitory compounds or vehicle controls. Samples were kept at room temperature for 5 minutes. The samples were run through the capillary with the constant shear rate (90 dynes/cm^2, Mirus 1.0 Nanopump, Cellix Ltd) for 5 min and capillary was washed with JNL buffer (6 mM Dextrose, 0.13 M NaCl, 9 mM Na Bicarb, 10 mM Na Citrate, 10 mM Tris base, 3 mM KCl, 0.81 mM KH2PO4, 0.9 mM MgCl2; pH was adjusted to 7.35 with 19 mM Citrate acid anhydrous, 37 mM Sodium citrate, 67 mM Dextrose) with the constant shear rate (90 dynes/cm^2) for 2 min. After that the average thrombi area on the capillary wall was analyzed with DucoCell analysis program (Cellix Ltd).

whole blood = test: PFA-100 platelet function analyzer, closure time of whole blood; assay type: cell-based; settings: PFA-100 analysis, collagen and ADP membrane
Procedure: The PFA-100 is a high shear-inducing device that simulates primary haemostasis after injury of a small vessel. The system comprises a test-cartridge containing a biologically active membrane coated with collagen and ADP. An anticoaculated whole blood sample was run through a capillary under a constant vacuum. […] The time required to obtain full occlusion of the aperture was designated as the closure time. Each compound was added to the whole blood sample and the closure time was measured with PFA-100.
Blood was collected from a donor via venipuncture into evacuated blood collection Lithium heparin tubes (VenoJect, Terumo). Blood was aliquoted into 1.5 mL tubes and treated with either inhibitory compounds or controls (DMSO). Samples were kept at room temperature with rotation for 10 minutes and after that the closure time (Ct) of the blood was measured.

IL-6 = test: LPS-induced IL-6 release in whole blood; assay type: cell-based, human; settings: LPS 0.25 ng/mL, 2 h
Procedure: The inflammatory cells are shown to be dependent on α2β1 function during inflammatory process. The anti-inflammatory potential of the α2β1 modulators was studied by measuring the effect on the release of cytokines like IL-6 as an example from inflammatory cells. Lipopolysaccharide (LPS) was used to induce the production of IL-6. Anticoaculated whole blood sample was incubated with or without the integrin α2β1 inhibitor before LPS was added to induce the cytokine release. The amount of cytokine IL-6 released from peripheral blood leukocytes was measured from plasma samples 2 hours after the induction.
Blood was collected from the donors via venipuncture into evacuated Lithium heparin tubes (VenoJect, Terumo). Blood was treated with either α2β1 integrin inhibitors or vehicle control (DMSO). Samples were kept at room temperature for 5 minutes and lipopolysaccharide (LPS, 0.25 ng/mL) was added to induce cytokine release from peripheral blood lymphocytes. Samples were inculabted for 2 h in 37° C., the plasma was isolated and the amount of IL-6 was determined with Human IL-6 Quantikine ELISA Kit (R&D Systems).

Compound | inhibition at 5 µM (PC-3 cells) | Inhibition of platelet adhesion to collagen [1] | other results
CN(c1ccc(NC(=O)Nc2ccccc2)cc1)S(=O)(=O)c1cc(C(F)(F)F)ccc1Cl [Compound B80] | 43% |  | 
O=C(Nc1ccccc1)Nc1ccc(NS(=O)(=O)c2cccc(-c3ccc(F)cc3)c2)cc1 [Compound B94] | 40% | + | closure time (Ct) of the whole blood (whole blood): increases the closure time (Ct)
COc1ccc(NC(=O)Nc2ccc(NS(=O)(=O)c3cccc(-c4ccc(F)cc4)c3)cc2)cc1 [Compound B72] | 39% |  | 
COCCOc1cccc(NC(=O)Nc2ccc(NS(=O)(=O)c3cccc(-c4ccc(F)cc4)c3)cc2)c1 [Compound B60] | 70% | + | 
Cc1ccc(NC(=O)Nc2ccccc2)cc1N(C)S(=O)(=O)c1cccc(-c2ccc(F)cc2)c1 [Compound B63] | 45% |  | 
Cc1ccc(NC(=O)Nc2ccccc2)cc1NS(=O)(=O)c1cccc(-c2ccc(F)cc2)c1 [Compound B40] | 98% | + | 
Cc1ccccc1NC(=O)Nc1ccc(NS(=O)(=O)c2cccc(-c3ccc(F)cc3)c2)cc1 [Compound B64] | 42% |  | 
O=C(Nc1ccncc1)Nc1ccc(NS(=O)(=O)c2cccc(-c3ccc(F)cc3)c2)cc1 [Compound B93] |  | + | 
CN(c1ccc(NC(=O)Nc2ccncc2)cc1)S(=O)(=O)c1cccc(-c2ccc(F)cc2)c1 [Compound B75] | 38% |  | 
CN(c1ccc(NC(=O)Nc2ccccc2)cc1)S(=O)(=O)c1cncc(-c2ccc(F)cc2)c1 [Compound B52] | 25% |  | 
CN(c1ccc(NC(=O)Nc2ccccc2)cc1)S(=O)(=O)c1cccc(OC(F)F)c1 [Compound B68] | 29% |  | 
CN(c1ccc(NC(=O)Nc2ccccc2)cc1)S(=O)(=O)c1cnn(-c2ccc(F)cc2)c1 [Compound B3] |  | + | 
Cc1ccccc1NC(=O)Nc1ccc(C)c(NS(=O)(=O)c2cccc(-c3ccc(F)cc3)c2)c1 [Compound B42] |  | + | 
CN(c1ccc(NC(=O)Nc2ccccc2)cc1)S(=O)(=O)c1ccc(Cl)cc1Cl [Compound B77] | 40% |  | 
CN(c1ccc(NC(=O)Nc2ccccc2)cc1)S(=O)(=O)c1cccc(C#N)c1 [Compound B78] | 30% | + | 
COc1ccc(-n2cc(S(=O)(=O)N(C)c3ccc(NC(=O)Nc4ccccc4)cc3)cn2)cn1 [Compound B109] |  | + | 
CN(c1ccc(NC(=O)Nc2ccccc2)cc1)S(=O)(=O)c1cccc(-c2ccc(F)cc2)c1 [Compound B55] | 76% |  | 
O=C(Nc1ccccc1)Nc1ccc(Cl)c(NS(=O)(=O)c2cccc(-c3ccc(F)cc3)c2)c1 [Compound B86] | 44% |  | 
Cc1ccc(NC(=O)NCc2ccccc2)cc1NS(=O)(=O)c1cccc(-c2ccc(F)cc2)c1 [Compound B67] | 10% | + | 
O=C(NCc1ccccc1)Nc1ccc(NS(=O)(=O)c2cccc(-c3ccc(F)cc3)c2)cc1 [Compound B91] | 56% |  | 
CN(c1ccc(NC(=O)Nc2ccccc2)cc1)S(=O)(=O)c1ccc(-c2ccccn2)s1 [Compound B11] |  | + | 
CN(c1ccc(NC(=O)Nc2ccccc2)cc1)S(=O)(=O)c1ccc(-c2cc(C(F)(F)F)nn2C)s1 [Compound B19] |  | + | 
CN(C)c1ccc(-c2ccc(S(=O)(=O)N(C)c3ccc(NC(=O)Nc4ccccc4)cc3)s2)cn1 [Compound B7] |  | + | 
O=C(Nc1ccccc1)Nc1ccc(N(CCCO)S(=O)(=O)c2cccc(-c3ccc(F)cc3)c2)cc1 [Compound B33] |  | + | 
O=C(Nc1ccccc1)Nc1cc(NS(=O)(=O)c2cccc(-c3ccc(F)cc3)c2)ccc1Cl [Compound B47] | 96% |  | 
CN(c1ccc(NC(=O)Nc2ccccc2)cc1)S(=O)(=O)c1cnn(-c2ccc(F)cn2)c1 [Compound B1] |  | + | platelet adhesion to collagen coated capillary under flow (FIG. 1) ([1]; Cellix analysis, flow conditions): dose dependent inhibitory effect; also recorded: inhibits the platelet adhesion to collagen coated capillary under mimicking physiological flow conditions dose dependently
Cc1nn(-c2ccc(F)cc2)c(C)c1S(=O)(=O)N(CCCO)c1ccc(NC(=O)Nc2ccccc2)cc1 [Compound B54] |  | + | 
CN(c1ccc(NC(=O)Nc2ccccc2)cc1)S(=O)(=O)c1ccc(-c2ccnn2C)s1 [Compound B6] |  |  | release of IL-6 after induction with LPS (IL-6): decreases the release of cytokines like IL-6
CN(c1ccc(NC(=O)Nc2ccccc2)cc1)S(=O)(=O)c1ccc(-n2ccnc2)s1 [Compound B17] |  | + | 
